Measurements as given in patent US5686424A, “2-oxoethyl derivatives as immunosuppressants” (Miles Inc., priority 1995, dated 1997).
Structures can show the parent of a compound that is named as a salt.

Assays:
FKBP = FKBP (Homo sapiens, UniProt P62942); assay: PPIase Inhibition Assay; assay type: biochemical; conditions: concentration of inhibitor required for 50% inhibition of enzyme activity; FKBP, substrate Succinyl-Ala-Phe-Pro-Phe-para-nitroanilide; TABLE I
Procedure, shortened: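 Rates from p-nitroaniline release at 390 nm over 90 sec, fitted first-order, were converted to % activity remaining relative to uncatalyzed and uninhibited rates, with IC50 from linear regression of V-/V+ against inhibitor level. FKBP acted on Suc-Ala-Phe-Pro-Phe-pNA with excess chymotrypsin, HEPES pH 7.8, cold buffer.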

human T-cells = assay: Suppression of Human T-Cell Proliferation Assay (PHA-stimulated, [3H]-thymidine incorporation); assay type: cell-based; conditions: concentration inhibiting [3H]-thymidine incorporation of PHA-stimulated T-cells by 50%, 72 hours; TABLE 2; read-out: IC50
Procedure, shortened: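 Read-out is scintillation counting of [3H]-thymidine pulsed for the last 6 h of a 72 h, 37° C culture. Human T-cells, isolated from LeukoPaks by Lymphoprep and sheep-erythrocyte rosetting, were PHA-M activated (40 μg/ml stock) with compound dilutions added in duplicate wells.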

[1] = test system: graft versus host response; assay: Mouse Lymph Node Assay for Modulation of Graft versus Host Response; assay type: in vivo; conditions: mice, 100 mg/kg per day intraperitoneal, after 7 days; popliteal lymph nodes, C57 B1/6-injected limb divided by BDF1-injected limb
Description: 4) Graft versus Host Assay
Transfer of parental strain T-cells (the graft) into F1 hybrid animals (the host) major different with respect to gene products of the histocompatibility complex (MHC) causes a GVHR. This reaction results from recognition of host allogeneic MHC gene products by specific clones of graft T-cells.
When given systemically in sufficient numbers, the graft T-cells cause a progressive, generally fatal, wasting syndrome. A local, nonfatal GVHR, marked by enlargement of the draining popliteal lymph nodes, ensues when graft T-cells are administered via the footpad as described by Ford et al., 1970, Transplantation 10:258. The GVHR is regarded as a correlate of allograft rejections where specific T-cells of either host or allograft origin are activated after recognition of allogeneic MHC gene products, leading to an immune inflammatory response which ultimately results in the destruction (rejection) of the allograft.
Mouse Lymph Node Assay for Modulation of Graft versus Host Response […]
After 7 days, the draining popliteal lymph nodes from the hind limbs were dissected out and weighed. The magnitude of the GVHR was expressed as the ratio of the mean weight of lymph nodes from the limb injected with semi-allogeneic C57 B1/6 cells divided by the mean weight of lymph nodes from the limb injected with syngeneic BDF1 cells.

NF-AT = NF-AT Inhibition Assay Directed β-Galactosidase Expression in FGL-5 cells; assay type: cell-based; conditions: 50% inhibition of NF-AT directed β-galactosidase activity in FGL-5 cells stimulated with phorbol dibutyrate and ionomycin; TABLE 3
Procedure, shortened: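 FGL-5 Jurkat cells (3 million cells/ml) carry NF-AT-site-driven lacZ. They were stimulated with phorbol dibutyrate plus ionomycin and incubated with compound 16-18 h at 37 °C, in duplicate wells with matched ethanol or DMSO vehicle controls. β-Galactosidase was read as fluorescence from 4-methylumbelliferyl-β-D-galactoside cleavage, giving percent inhibition.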

Chain of FKBP (P62942 whole entry): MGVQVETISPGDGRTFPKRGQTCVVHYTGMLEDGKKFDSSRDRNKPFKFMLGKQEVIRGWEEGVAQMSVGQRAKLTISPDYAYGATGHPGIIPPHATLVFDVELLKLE

SMILES	IC50 (FKBP)	IC50 (human T-cells)	Lymph Node Weight Ratio [1]	IC50 (NF-AT)
CC[C@H](C)[C@H](NC(=O)[C@@H]1CCCN1CC(=O)C12CC3CC(CC(C3)C1)C2)C(=O)NCc1ccccc1 [Example 24, L-Isoleucine, N-[1-(2-Adamantan-1-yl-2-Oxoethyl)-L-Prolyl] Benzylamide]	0.06 µM	12 µM	1.2	
C=CCOC(=O)Nc1ccc(CCCOC(=O)[C@@H]2CCCN2CC(=O)c2cc(OC)c(OC)c(OC)c2)cc1 [Example 126, L-Proline, 1-[2-(3,4,5-Trimethoxyphenyl)-2-Oxoethyl] 3-(4-[N-Carboallyloxy]aminophenyl)propyl Ester Hydrochloride]	> 5 µM	10 µM		> 15 µM
CC[C@H](C)[C@H](NC(=O)[C@@H]1CCCN1CC(=O)OCC=C(C)CCC=C(C)CCC=C(C)C)C(=O)NCc1ccccc1 [Example 83, L-Isoleucine, N-[1-(2-[1-(3,7,11-Trimethyldodeca-2,6,10-trien-1-ol)]-2-Oxoethyl)-L-Proline] Benzylamide]	> 5 µM	7 µM		12 µM
CC[C@H](C)[C@H](NC(=O)[C@@H]1CCCN1CC(=O)C1CCC(C(C)(C)C)CC1)C(=O)NCc1ccccc1 (stereo partly drawn) [Example 96, L-Isoleucine, N-[1-(2-(4-tert-Butylcyclohexyl)-2-Oxoethyl)-L-Prolyl] Benzylamide]	< 5 µM	8 µM		24 µM
COc1cc(C(=O)CN2CCC[C@H]2C(=O)NCCCc2ccccc2)cc(OC)c1OC [Example 122, L-Proline, 1-[2-(3,4,5-Trimethoxyphenyl)-2-Oxoethyl] 3-Phenylpropylamide Hydrochloride]	> 5 µM	8 µM		> 15 µM
CCOc1cc(C(=O)CN2CCC[C@H]2C(=O)N[C@H](C(=O)NCc2ccccc2)[C@@H](C)CC)cc(OCC)c1OCC [Example 106, L-Isoleucine, N-[1-(2-(3,4,5-Triethoxyphenyl)-2-Oxoethyl)-L-Prolyl] Benzylamide]	< 5 µM	> 15 µM		> 15 µM
CC[C@H](C)[C@H](NC(=O)[C@@H]1CCCN1CC(=O)c1cccc(OC(=O)c2ccccc2)c1)C(=O)NCc1ccccc1 [Example 101, L-Isoleucine, N-[1-(2-(3-Benzoyloxyphenyl)-2-Oxoethyl)-L-Prolyl] Benzylamide]	< 5 µM	> 15 µM		> 15 µM
CCC(OC(=O)CN1CCC[C@H]1C(=O)N[C@H](C(=O)NCc1ccccc1)[C@@H](C)CC)c1ccccc1 (stereo partly drawn) [Example 86, L-Isoleucine, N-[1-(2-(1-Phenylpropoxy)-2-Oxoethyl)-L-Prolyl] Benzylamide]	0.88 µM	22 µM		13 µM
COc1cc(C(=O)CN2CCCC[C@H]2C(=O)N[C@H](/C=C/c2ccccc2)CC(C)C)cc(OC)c1OC [Example 151, L-Homoproline, 1-[2-(3,4,5-Trimethoxyphenyl)-2-Oxoethyl] (1-(S)-[2'-(S)-methylpropyl]-3-phenylprop-2-E-enyl)-amide]	> 5 µM	4 µM		> 15 µM
COc1cc(C(=O)CN2CCC[C@H]2C(=O)NCc2ccccc2)cc(OC)c1OC [Example 120, L-Proline, 1-[2-(3,4,5-Trimethoxyphenyl)-2-Oxoethyl] Benzylamide Hydrochloride]	> 5 µM	7 µM		> 15 µM
COc1cc(C(=O)CN2CCC[C@H]2C(=O)N[C@@H](C)c2ccccc2)cc(OC)c1OC [Example 136, L-Proline, 1-[2-(3,4,5-Trimethoxyphenyl)-2-Oxoethyl] (S)-α-methylbenzylamide Hydrochloride]	> 5 µM	7 µM		> 33 µM
CC[C@H](C)[C@H](NC(=O)[C@@H]1CCCN1CC(=O)c1cccc(Oc2ccccc2)c1)C(=O)NCc1ccccc1 [Example 104, L-Isoleucine, N-[1-(2-(3-Phenoxyphenyl)-2-Oxoethyl)-L-Prolyl] Benzylamide]	< 5 µM	> 15 µM		> 15 µM
CC[C@H](C)[C@H](NC(=O)[C@@H]1CCCN1CC(=O)c1c(OC)cc(OC)cc1OC)C(=O)NCc1ccccc1 [Example 110, L-Isoleucine, N-[1-(2-(2,4,6-Trimethoxyphenyl)-2-Oxoethyl)-L-Prolyl] Benzylamide]	< 5 µM	6 µM		> 15 µM
